Reference: ChEMBL document CHEMBL3813606, “Synthesis and skin gene analysis of 4'-acetoxy-resveratrol (4AR), therapeutic potential for dermal applications” (Bioorg Med Chem Lett, 2016)

Legend:
[1] = system: Zone of skin; assay: Toxicity in human epidermal full thickness skin cultures assessed as intact and healthy stratum corneum at 1 % after 24 hrs by hematoxylin/eosin staining based assay
[2] = system: Zone of skin; assay: Toxicity in human epidermal full thickness skin cultures assessed as intact and healthy keratinocytes at 1 % after 24 hrs by hematoxylin/eosin staining based assay
[3] = system: Zone of skin; assay: Toxicity in human epidermal full thickness skin cultures assessed as intact and healthy fibroblasts at 1 % after 24 hrs by hematoxylin/eosin staining based assay
[4] = system: NHDF; assay: Upregulation of SIRT-1 gene expression in NHDF by real time RT-PCR analysis relative to control; format: functional, Homo sapiens
[5] = system: Zone of skin; assay: Upregulation of SIRT-1 gene expression in human epidermal full thickness skin cultures at 1 % after 24 hrs by real time PCR analysis relative to control; format: functional
[6] = system: Zone of skin; assay: Upregulation of procollagen type III gene expression in human epidermal full thickness skin cultures at 1 % after 24 hrs by real time PCR analysis relative to control; format: functional
[7] = system: Zone of skin; assay: Upregulation of type IV collagen alpha 1 gene expression in human epidermal full thickness skin cultures at 1 % after 24 hrs by real time PCR analysis relative to control; format: functional
[8] = system: Zone of skin; assay: Upregulation of type IV collagen alpha 2 gene expression in human epidermal full thickness skin cultures at 1 % after 24 hrs by real time PCR analysis relative to control; format: functional
[9] = system: Zone of skin; assay: Upregulation of elastin gene expression in human epidermal full thickness skin cultures at 1 % after 24 hrs by real time PCR analysis relative to control; format: functional
[10] = system: Zone of skin; assay: Upregulation of TIMP 1 gene expression in human epidermal full thickness skin cultures at 1 % after 24 hrs by real time PCR analysis relative to control; format: functional
[11] = system: Zone of skin; assay: Upregulation of TIMP 2 gene expression in human epidermal full thickness skin cultures at 1 % after 24 hrs by real time PCR analysis relative to control; format: functional
[12] = system: Zone of skin; assay: Upregulation of catalase gene expression in human epidermal full thickness skin cultures at 1 % after 24 hrs by qPCR analysis relative to control; format: functional
[13] = system: Zone of skin; assay: Upregulation of LOX gene expression in human epidermal full thickness skin cultures at 1 % after 24 hrs by qPCR analysis relative to control; format: functional
[14] = system: Zone of skin; assay: Upregulation of SOD 1 gene expression in human epidermal full thickness skin cultures at 1 % after 24 hrs by qPCR analysis relative to control; format: functional
[15] = system: Zone of skin; assay: Upregulation of SOD 2 gene expression in human epidermal full thickness skin cultures at 1 % after 24 hrs by qPCR analysis relative to control; format: functional
[16] = system: Zone of skin; assay: Upregulation of MT1H gene expression in human epidermal full thickness skin cultures at 1 % after 24 hrs by qPCR analysis relative to control; format: functional
[17] = system: Zone of skin; assay: Upregulation of MT2A gene expression in human epidermal full thickness skin cultures at 1 % after 24 hrs by qPCR analysis relative to control; format: functional
[18] = system: Zone of skin; assay: Upregulation of FBN 1 gene expression in human epidermal full thickness skin cultures at 1 % after 24 hrs by qPCR analysis relative to control; format: functional
[19] = system: Zone of skin; assay: Upregulation of LAMB 1 gene expression in human epidermal full thickness skin cultures at 1 % after 24 hrs by qPCR analysis relative to control; format: functional
[20] = system: Zone of skin; assay: Upregulation of PCNA gene expression in human epidermal full thickness skin cultures at 1 % after 24 hrs by qPCR analysis relative to control; format: functional
[21] = system: Zone of skin; assay: Upregulation of HBEGF gene expression in human epidermal full thickness skin cultures at 1 % after 24 hrs by qPCR analysis relative to control; format: functional
[22] = system: Zone of skin; assay: Upregulation of IGF 1 gene expression in human epidermal full thickness skin cultures at 1 % after 24 hrs by qPCR analysis relative to control; format: functional
[23] = system: Zone of skin; assay: Upregulation of NGF gene expression in human epidermal full thickness skin cultures at 1 % after 24 hrs by qPCR analysis relative to control; format: functional
[24] = system: Zone of skin; assay: Upregulation of TGF gene expression in human epidermal full thickness skin cultures at 1 % after 24 hrs by qPCR analysis relative to control; format: functional
[25] = Lipophilicity, log P of the compound; conditions: octanol/water

## CC(=O)Oc1ccc(/C=C/c2cc(O)cc(O)c2)cc1
[1]
  Activity: Non-toxic
[2]
  Activity: Non-toxic
[3]
  Activity: Non-toxic
[4]
  fold change (FC): >3.3
[5]
  Activity: 335%
[6]
  Activity: 220%
[7]
  Activity: 170%
[8]
  Activity: 180%
[9]
  Activity: 280%
[10]
  Activity: 250%
[11]
  Activity: 130%
[12]
  Activity: 160%
[13]
  Activity: 190%
[14]
  Activity: 160%
[15]
  Activity: 170%
[16]
  Activity: 6400%
[17]
  Activity: 340%
[18]
  Activity: 130%
[19]
  Activity: 140%
[20]
  Activity: 540%
[21]
  Activity: 190%
[22]
  Activity: 264%
[23]
  Activity: 672%
[24]
  Activity: 200%

## Oc1ccc(/C=C/c2cc(O)cc(O)c2)cc1 [RESVERATROL]
[25]
  logP: 3.1
[5]
  fold change (FC): 1.8
[9]
  Activity: 180%
